We go through 8 compounds from patent US20160355530A1, “HEPATITIS C INHIBITORS AND USES THEREOF” (AbbVie Inc., priority 2010, published 2016).

Where two headings read alike, the source gives them in different places.

The subject of experiment [1] is chimeric replicon with genotype 4a NS5B. Nature of the experiment: microbe, parasite or virus in culture. The note with it: Hepatitis C virus, read-out: 4a chimera 5% FBS EC50. In kind it is cell-based, HCV genotype 4a.
The subject of experiment [2] is chimeric replicon with genotype 2b NS5B. The experiment can be described thus: microbe, parasite or virus in culture. In kind it is cell-based, HCV genotype 2b. The note with it: Hepatitis C virus, read-out: 2b chimera 5% FBS EC50.
For experiment [3], the target named is T1, HCV NS5B polymerase 1b BK strain (Hepatitis C virus genotype 1b, UniProt P26663).
T1 construct: six-histidine tag; made in house; host or cells: E. coli
Nature of the experiment: HCV NS5B polymerase enzymatic inhibition assay, strain 1b BK. In kind it is biochemical. The note with it: enzyme, strain 1b BK; read-out: HCV Polymerase Strain 1b BK IC50. In a few lines: (§1)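 E. coli-expressed NS5B (residues 1-570, His-tagged) transcribed a 2.1 kb HCV 1b negative-strand 3′-end RNA template (5 nM) with 20 μM CTP, 20 μM ATP and 0.284 μM [3H]UTP for 3 h at 30° C. Spermine-precipitated RNA was filter-captured and counted by scintillation; IC50 from nonlinear regression.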

Experiment [4] concerns HCV 1a-H77 subgenomic replicon. The experiment can be described thus: microbe, parasite or virus in culture. In kind it is cell-based, HCV genotype 1a. The note with it: Hepatitis C virus, stable replicon. For orientation: A replicon is a self-replicating genome or part of one, used to study replication in cells.
Experiment [5] concerns chimeric replicon with 2a-J6CF-derived NS5B. Nature of the experiment: microbe, parasite or virus in culture. The note with it: Hepatitis C virus, read-out: 2a chimera 5% FBS EC50. It is filed as cell-based, HCV genotype 2a.
In experiment [6] the test system is chimeric replicon with genotype 3a NS5B. The experiment can be described thus: microbe, parasite or virus in culture. In kind it is cell-based, HCV genotype 3a. The following applies: Hepatitis C virus, read-out: 3a chimera 5% FBS EC50.
The target of experiment [7] is T2, HCV NS5B polymerase 1a-H77 (Hepatitis C virus genotype 1a, UniProt P27958).
T2 construct: six-histidine tag; made in house; host or cells: E. coli
The experiment can be described thus: biochemical. Also on record: species or system HCV genotype 1a. The following applies: enzyme, strain 1a H77; read-out: HCV Polymerase Strain 1a H77 IC50. The method, boiled down: as §1

Experiment [8] deals with HCV NS5B polymerase 1a-H77-C316Y. Nature of the experiment: biochemical. The following applies: ratio of enzyme IC50s, 1a H77-C316Y / 1a H77. Also on record: species or system HCV genotype 1a. In a few lines:
as §1

Experiment [9] has as its target T3, HCV NS5B polymerase 1a-H77-C316Y (Hepatitis C virus genotype 1a, UniProt P27958, C2736Y).
T3 construct: six-histidine tag; made in house; host or cells: E. coli
The experiment can be described thus: biochemical. Also on record: species or system HCV genotype 1a. The method, boiled down:
as §1

Experiment [10] concerns HCV 1b-BB7 subgenomic replicon. Nature of the experiment: microbe, parasite or virus in culture. It is filed as cell-based, HCV genotype 1b. The note with it: Hepatitis C virus, stable replicon.
Where [11] appears, read: 5% FBS, absence of human plasma, read-out: Stable Replicon 1a H77 5% FBS EC50.
[12] abbreviates: strain 1a H77, 5% FBS + 40% human plasma, read-out: 1a H77 5% FBS + 40% Human Plasma EC50.
[13] abbreviates: strain 1a H77, 5% FBS, no human plasma, read-out: 1a H77 5% FBS EC50.
Setting [14] is: strain 1a H77, 5% FBS, read-out: 1a H77 5% FBS EC50.
Setting [15] is: strain 1b BB7, 5% FBS + 40% human plasma, read-out: 1b BB7 5% FBS + 40% Human Plasma EC50.
Where [16] appears, read: strain 1b BB7, 5% FBS, no human plasma, read-out: 1b BB7 5% FBS EC50.
Setting [17] is: strain 1b BB7, 5% FBS, read-out: 1b BB7 5% FBS EC50.

T2 sequence (P27958 2421-2990): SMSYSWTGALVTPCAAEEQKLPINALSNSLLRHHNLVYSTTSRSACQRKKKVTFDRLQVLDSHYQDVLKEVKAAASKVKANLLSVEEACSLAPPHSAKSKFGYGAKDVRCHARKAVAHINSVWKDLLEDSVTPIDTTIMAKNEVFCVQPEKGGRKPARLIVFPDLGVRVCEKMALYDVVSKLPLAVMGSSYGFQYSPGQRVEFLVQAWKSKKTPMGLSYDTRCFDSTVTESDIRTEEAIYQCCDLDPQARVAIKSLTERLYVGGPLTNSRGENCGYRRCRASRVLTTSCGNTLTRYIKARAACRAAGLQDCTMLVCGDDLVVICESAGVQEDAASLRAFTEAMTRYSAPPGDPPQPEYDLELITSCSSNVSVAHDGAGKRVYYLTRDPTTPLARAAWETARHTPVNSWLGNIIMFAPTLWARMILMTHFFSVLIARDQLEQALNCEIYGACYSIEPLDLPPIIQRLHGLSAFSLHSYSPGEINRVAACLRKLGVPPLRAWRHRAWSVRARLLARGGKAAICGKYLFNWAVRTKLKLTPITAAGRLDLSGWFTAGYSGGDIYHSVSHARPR
T1 sequence (P26663 2420-2989): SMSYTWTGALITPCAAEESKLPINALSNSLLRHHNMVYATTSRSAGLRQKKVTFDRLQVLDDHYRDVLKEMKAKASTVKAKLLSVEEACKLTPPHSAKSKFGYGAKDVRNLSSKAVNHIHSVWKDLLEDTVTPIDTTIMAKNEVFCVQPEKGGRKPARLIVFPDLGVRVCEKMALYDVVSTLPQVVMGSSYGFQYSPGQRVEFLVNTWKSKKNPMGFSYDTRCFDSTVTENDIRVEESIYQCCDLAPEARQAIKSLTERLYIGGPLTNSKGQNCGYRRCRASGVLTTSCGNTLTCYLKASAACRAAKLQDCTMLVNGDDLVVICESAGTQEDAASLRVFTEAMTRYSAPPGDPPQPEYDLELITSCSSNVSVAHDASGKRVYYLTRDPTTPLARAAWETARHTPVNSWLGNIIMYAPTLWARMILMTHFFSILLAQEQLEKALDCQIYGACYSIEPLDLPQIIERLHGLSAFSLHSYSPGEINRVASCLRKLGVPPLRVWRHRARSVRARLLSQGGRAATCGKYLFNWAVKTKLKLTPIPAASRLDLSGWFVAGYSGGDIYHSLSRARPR
T3 sequence (P27958 2421-2990 C2736Y): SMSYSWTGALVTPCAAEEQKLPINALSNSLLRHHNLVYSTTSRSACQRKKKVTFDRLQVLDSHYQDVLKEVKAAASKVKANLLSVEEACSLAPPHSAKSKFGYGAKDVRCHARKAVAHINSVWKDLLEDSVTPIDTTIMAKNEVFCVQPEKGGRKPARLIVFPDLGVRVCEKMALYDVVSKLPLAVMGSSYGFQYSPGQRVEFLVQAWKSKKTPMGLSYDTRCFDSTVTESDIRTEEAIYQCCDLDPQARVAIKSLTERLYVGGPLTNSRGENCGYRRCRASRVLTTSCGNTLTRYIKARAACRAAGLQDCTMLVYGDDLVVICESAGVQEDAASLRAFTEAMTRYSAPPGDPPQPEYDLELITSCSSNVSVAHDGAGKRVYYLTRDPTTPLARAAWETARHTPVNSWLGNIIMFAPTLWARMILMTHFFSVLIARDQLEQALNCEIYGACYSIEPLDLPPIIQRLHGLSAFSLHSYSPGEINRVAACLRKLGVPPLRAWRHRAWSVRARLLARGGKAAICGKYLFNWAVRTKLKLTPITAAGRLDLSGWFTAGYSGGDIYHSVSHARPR

For the compound `CS(=O)(=O)N(CCCc1noc(=O)[nH]1)c1cc2oc(-c3ccc(F)cc3)c(-c3ncc[nH]3)c2cc1C1CC1` [Example 175, N-[5-cyclopropyl-2-(4-fluorophenyl)-3-(1H-imidazol-2-yl)-1-benzofuran-6-yl]-N-[3-(5-oxo-4,5-dihydro-1,2,4-oxadiazol-3-yl)propyl]methanesulfonamide], the EC50 (commonly the midpoint of the concentration-response curve) was found to be 407 nM in experiment [1]; 723 nM in experiment [2]; 79 nM in experiment [4] (setting [11]); 1180 nM in experiment [4] (setting [12]); 79 nM in experiment [4] (setting [13]); 79 nM in experiment [4] (setting [14]). For the same compound, the EC50 was found to be 660 nM in [5]; 62 nM in experiment [6]; 570 nM in experiment [10] (setting [15]); 62 nM in experiment [10] (setting [16]); 62 nM in [10] (setting [17]). The IC50 (as a rule, the concentration needed to halve the response being measured) was 25 nM in [3], 6 nM in [7] and 43 nM in experiment [9]. For the same compound, the “C316Y/1a Fold Resistance” value in [8] is 7 fold.
In the case of `CN(C)C(=O)CCCN(c1cc2oc(-c3ccc(F)cc3)c(-c3ncc[nH]3)c2cc1C1CC1)S(C)(=O)=O` [Example 102, 4-{[5-cyclopropyl-2-(4-fluorophenyl)-3-(1H-imidazol-2-yl)-1-benzofuran-6-yl](methylsulfonyl)amino}-N,N-dimethylbutanamide], the EC50 in experiment [1] turned out to be 145 nM; in [2], 134 nM; in [4] (setting [11]) it was 24.1 nM; in [4] (setting [12]), 242 nM; in [4] (setting [13]), 24.1 nM; in experiment [4] (setting [14]), 24.1 nM. For the same compound, the EC50 is 108 nM in [5]; 9.7 nM in experiment [6]; 66 nM in [10] (setting [15]); 10 nM in [10] (setting [16]); 10 nM in experiment [10] (setting [17]). Moreover, the IC50 turned out to be 47 nM in [3], 7.7 nM in [7] and 168 nM in experiment [9]. Besides, the “C316Y/1a Fold Resistance” value in experiment [8] came out at 22 fold.
As to `CS(=O)(=O)N(CC1CC1)c1cc2oc(-c3ccc(F)cc3)c(-c3ncc[nH]3)c2cc1C1CC1` [Example 53, N-[5-cyclopropyl-2-(4-fluorophenyl)-3-(1H-imidazol-2-yl)-1-benzofuran-6-yl]-N-(cyclopropylmethyl)methanesulfonamide], the EC50 in experiment [1] is 379 nM; in [2] it was 267 nM; in [4] (setting [11]), 111 nM; in experiment [4] (setting [12]), 1010 nM; in experiment [4] (setting [13]), 111 nM; in experiment [4] (setting [14]), 111 nM. For the same compound, the 50% effective concentration (EC50) in experiment [5] was 154 nM; in experiment [6], 23 nM; in experiment [10] (setting [15]), 224 nM; in experiment [10] (setting [16]) it was 52 nM; in experiment [10] (setting [17]), 52 nM. Also, the results for the IC50 in experiment [3], in experiment [7] and in [9] were 245 nM, 4.9 nM and 223 nM, respectively. In addition, in experiment [8], the “C316Y/1a Fold Resistance” value is reported as 46 fold.
Turning to `CCN(CC)CCN(c1cc2oc(-c3ccc(F)cc3)c(C3=NOCCN3)c2cc1C1CC1)S(C)(=O)=O` [Example 129, N-[5-cyclopropyl-3-(5,6-dihydro-4H-1,2,4-oxadiazin-3-yl)-2-(4-fluorophenyl)-1-benzofuran-6-yl]-N-[2-(diethylamino)ethyl]methanesulfonamide], the EC50 in [1] was more than 1000 nM; in [2], 625 nM; in experiment [4] (setting [11]) it was 80.9 nM; in experiment [4] (setting [12]), 300 nM; in experiment [4] (setting [13]), 80.9 nM; in [4] (setting [14]), 80.9 nM. Moreover, the EC50 in experiment [5] turned out to be 625 nM; in experiment [6] it was 149 nM; in experiment [10] (setting [15]), 163 nM; in [10] (setting [16]) it was 38 nM; in experiment [10] (setting [17]), 38 nM. For the same compound, the results for the IC50 in experiment [3], in [7] and in experiment [9] were 466 nM, 24 nM and 632 nM, respectively. Besides, the “C316Y/1a Fold Resistance” value in experiment [8] came out at 26 fold.
Regarding `Cn1cc(-c2ncc(CN(c3ccc4c(-c5ncc[nH]5)c(-c5ccccc5)oc4c3)S(C)(=O)=O)s2)cn1` [Example 26, N-[3-(1H-imidazol-2-yl)-2-phenyl-1-benzofuran-6-yl]-N-{[2-(1-methyl-1H-pyrazol-4-yl)-1,3-thiazol-5-yl]methyl}methanesulfonamide], the half-maximal effective concentration (EC50) in [1] is 377 nM; in [2], 497 nM; in experiment [4] (setting [11]), 343 nM; in experiment [4] (setting [12]) it was 10000 nM; in experiment [4] (setting [13]), 343 nM; in experiment [4] (setting [14]) it was 343 nM. Moreover, the EC50 was determined as 277 nM in [5]; 5.2 nM in experiment [6]; 5450 nM in [10] (setting [15]); 15 nM in experiment [10] (setting [16]); 15 nM in experiment [10] (setting [17]). The figures for the IC50 in experiment [3], in experiment [7] and in [9] were 10 nM, 12 nM and 30 nM, respectively. For the same compound, the “C316Y/1a Fold Resistance” value in experiment [8] stood at 3 fold.
For the compound `CS(=O)(=O)N(CCCN1CCOCC1)c1cc2oc(-c3ccc(F)cc3)c(-c3ncc[nH]3)c2cc1C1CC1` [Example 60, N-[5-cyclopropyl-2-(4-fluorophenyl)-3-(1H-imidazol-2-yl)-1-benzofuran-6-yl]-N-[3-(morpholin-4-yl)propyl]methanesulfonamide], the concentration giving a half-maximal response (EC50) in experiment [1] worked out at 64.8 nM; in experiment [2], 79.6 nM; in experiment [4] (setting [11]), 20 nM; in [4] (setting [12]), 152 nM; in [4] (setting [13]), 20 nM; in experiment [4] (setting [14]), 20 nM. Also, the EC50 is 44.7 nM in experiment [5]; 8.1 nM in experiment [6]; 99.5 nM in experiment [10] (setting [15]); 8.6 nM in [10] (setting [16]); 8.6 nM in experiment [10] (setting [17]). Besides, the IC50 in experiment [3] was determined as 20 nM; in experiment [7], 11.2 nM; in experiment [9], 191 nM. For the same compound, the “C316Y/1a Fold Resistance” value in [8] is given as 17 fold.
Regarding `CC[S+]([O-])CCCN(c1cc2oc(-c3ccc(F)cc3)c(C3=NOCCN3)c2cc1C1CC1)S(C)(=O)=O` (stereo not drawn) [Example 144, N-[5-cyclopropyl-3-(5,6-dihydro-4H-1,2,4-oxadiazin-3-yl)-2-(4-fluorophenyl)-1-benzofuran-6-yl]-N-[3-(ethylsulfinyl)propyl]methanesulfonamide], the EC50 worked out at 380 nM in experiment [1]; 419 nM in [2]; 39 nM in experiment [4] (setting [11]); 254 nM in experiment [4] (setting [12]); 39 nM in [4] (setting [13]); 39 nM in [4] (setting [14]). Moreover, the EC50 in [5] stood at 380 nM; in experiment [6], 62 nM; in [10] (setting [15]) it was 333 nM; in experiment [10] (setting [16]), 37 nM; in experiment [10] (setting [17]), 37 nM. The results for the IC50 in [3], in experiment [7] and in experiment [9] were 92 nM, 7 nM and 89 nM, respectively. The “C316Y/1a Fold Resistance” value in [8] turned out to be 13 fold.
Consider `CS(=O)(=O)N(CCN1CCOCC1)c1cc2oc(-c3ccc(F)cc3)c(-c3ncc[nH]3)c2cc1C1CC1` [Example 58, N-[5-cyclopropyl-2-(4-fluorophenyl)-3-(1H-imidazol-2-yl)-1-benzofuran-6-yl]-N-[2-(morpholin-4-yl)ethyl]methanesulfonamide], for which the EC50 came to 130 nM in [1]; 130 nM in experiment [2]; 21.8 nM in experiment [4] (setting [11]); 333 nM in [4] (setting [12]); 21.8 nM in experiment [4] (setting [13]); 21.8 nM in experiment [4] (setting [14]). Also, the EC50 worked out at 78.9 nM in experiment [5]; 9.8 nM in experiment [6]; 193 nM in experiment [10] (setting [15]); 11.9 nM in experiment [10] (setting [16]); 11.9 nM in experiment [10] (setting [17]). Also, the IC50 in experiment [3] is 29 nM; in experiment [7] it was 7.3 nM; in [9], 133 nM. Also, the “C316Y/1a Fold Resistance” value in experiment [8] was 18 fold.
